Measurements taken from PubChem BioAssay (NCI).
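Test compounds were applied to cells in 96-well plates for 48 hours at 5 doses. TGI: total growth inhibition.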

What was measured:
Assay in all cases: NCI-60 cell line screen, 48 h
SF-268 CNS = test system: SF-268 CNS
NCI-H226 lung = test system: NCI-H226 lung
MDA-N = test system: MDA-N
K-562 leukemia = test system: K-562 leukemia
HOP-62 NSCLC = test system: HOP-62 NSCLC
UACC-62 melanoma = test system: UACC-62 melanoma
HL-60(TB) leukemia = test system: HL-60(TB) leukemia
RPMI-8226 leukemia = test system: RPMI-8226 leukemia
TK-10 renal = test system: TK-10 renal
OVCAR-4 ovarian = test system: OVCAR-4 ovarian
PC-3 prostate = test system: PC-3 prostate
M14 melanoma = test system: M14 melanoma
HCC-2998 colon = test system: HCC-2998 colon
SF-295 CNS = test system: SF-295 CNS
SW-620 colon = test system: SW-620 colon
MOLT-4 leukemia = test system: MOLT-4 leukemia
MALME-3M melanoma = test system: MALME-3M melanoma
OVCAR-5 ovarian = test system: OVCAR-5 ovarian
EKVX NSCLC = test system: EKVX NSCLC

Compound | TGI (SF-268 CNS) [µM] | TGI (NCI-H226 lung) [µM] | TGI (MDA-N) [µM] | TGI (K-562 leukemia) [µM] | TGI (HOP-62 NSCLC) [µM] | TGI (UACC-62 melanoma) [µM] | TGI (HL-60(TB) leukemia) [µM] | TGI (RPMI-8226 leukemia) [µM] | TGI (TK-10 renal) [µM] | TGI (OVCAR-4 ovarian) [µM] | TGI (PC-3 prostate) [µM] | TGI (M14 melanoma) [µM] | TGI (HCC-2998 colon) [µM] | TGI (SF-295 CNS) [µM] | TGI (SW-620 colon) [µM] | TGI (MOLT-4 leukemia) [µM] | TGI (MALME-3M melanoma) [µM] | TGI (OVCAR-5 ovarian) [µM] | TGI (EKVX NSCLC) [µM]
O=c1cc(-c2cccc(Br)c2)[nH]c2cc3c(cc12)OCO3 | 24 | 37 | 2 | > 100 | 4.8 | 4.83 | > 100 | > 100 | 28.6 | > 100 | > 100 | 24.5 | 63 | 6.52 | > 100 | > 100 | 17.2 | > 100 | –
N#C/C=C\c1ccc(-c2cc(C(F)(F)F)cc(C(F)(F)F)c2)o1 | 69.7 | > 100 | 71.6 | > 100 | 47.3 | 62.8 | 41.4 | > 100 | – | > 100 | > 100 | > 100 | > 100 | 46 | > 100 | > 100 | > 100 | > 100 | > 100
O=c1[nH]c(=S)c2[nH]c(=O)n(-c3ccccc3)c2[nH]1 | > 100 | > 100 | > 100 | > 100 | > 100 | > 100 | – | – | > 100 | > 100 | > 100 | > 100 | > 100 | > 100 | > 100 | > 100 | > 100 | > 100 | > 100
Cc1ccc(NCc2nnc3c(-c4ccccc4)nc4ccccc4n23)cc1 | > 100 | > 100 | > 100 | > 100 | > 100 | > 100 | 68.3 | – | > 100 | > 100 | 52.9 | > 100 | > 100 | > 100 | > 100 | > 100 | > 100 | > 100 | 84.1
COC(=O)C(=O)C(C(=O)C(=O)Nc1nc(=S)[nH][nH]1)c1nc2ccc([N+](=O)[O-])cc2[nH]c1=O (configuration not stated) | > 100 | > 100 | > 100 | > 100 | > 100 | > 100 | > 100 | > 100 | > 100 | > 100 | > 100 | > 100 | > 100 | > 100 | > 100 | – | > 100 | > 100 | > 100
NC(=O)N=Nc1c2ccccc2n2[nH]ccc12 | > 100 | > 100 | > 100 | > 100 | > 100 | > 100 | 58.1 | – | > 100 | > 100 | > 100 | > 100 | > 100 | > 100 | > 100 | > 100 | > 100 | > 100 | > 100
Cc1ccc2c(c1)C/C(=C\c1ccccc1C(=O)O)C2=O | > 100 | > 100 | > 100 | > 100 | > 100 | > 100 | > 100 | > 100 | > 100 | > 100 | > 100 | – | > 100 | > 100 | > 100 | > 100 | > 100 | > 100 | > 100
O=C(NC(Cc1ccccc1)P(=O)(O)c1ccccc1)OCc1ccccc1 (configuration not stated) | > 100 | > 100 | > 100 | > 100 | > 100 | > 100 | > 100 | > 100 | > 100 | > 100 | > 100 | > 100 | – | > 100 | > 100 | > 100 | > 100 | > 100 | > 100
Fc1ccc(C(OCCN2CCC3CCC(C2)N3C/C=C/c2cccnc2)c2ccc(F)cc2)cc1 (configuration not stated) | 26.2 | 30.3 | 23.8 | – | 31 | 25 | – | 5.8 | 24 | 30.2 | 21.8 | 7.09 | 15.6 | 22.2 | 23.1 | 14.9 | 15 | 26.8 | 25
C1COCCOP2(N3CC3)=NP(N3CC3)(=NP(N3CC3)(N3CC3)=N2)OCCOCCO1 (configuration not stated) | > 100 | > 100 | > 100 | > 100 | > 100 | > 100 | > 100 | > 100 | > 100 | > 100 | > 100 | > 100 | – | > 100 | > 100 | > 100 | > 100 | > 100 | > 100
Cc1ccc(S(=O)(=O)N/N=C2\CC3C4CCC3C2C4)cc1 (configuration not stated) | > 100 | > 100 | > 100 | > 100 | > 100 | > 100 | > 100 | – | > 100 | > 100 | > 100 | > 100 | > 100 | > 100 | > 100 | > 100 | > 100 | > 100 | > 100
CCCCn1c2c(n(CCCC)c1=[Se])-c1c(n(CCCC)c(=[Se])n1CCCC)S[Se][Se]S2 | > 100 | 39 | > 100 | > 66.9 | 49.1 | 40.7 | – | > 70 | 43.3 | 25.8 | 34.7 | > 59.9 | > 100 | 30.9 | 19.6 | > 90.6 | 15.4 | 47.6 | > 100
C/C(CC(O)(C(F)(F)F)C(F)(F)F)=N/Nc1ccc([N+](=O)[O-])cc1[N+](=O)[O-] | > 10 | 6.66 | > 10 | 9.56 | 9.15 | > 10 | 7.94 | 5.91 | > 10 | > 10 | > 10 | > 10 | > 10 | > 10 | > 10 | > 10 | > 10 | – | > 10
